Measured values from US9416132B2, “Substituted imidazo[1,2-b]pyridazines as protein kinase inhibitors” (Tolero Pharmaceuticals, Inc., priority 2011, dated 2016).
Read-outs that look alike come from different tables or passages of the source.

Key:
PIM-1 [1] = molecular target: T1, PIM-1 (Homo sapiens (Human), UniProt P11309); experiment: Pim-1 kinase inhibition assay (Promega Kinase-Glo); format: biochemical; details: read-out: Compound IC50 on Pim1
Source text: One illustrative manner in which Pim-1 kinase activity can be determined is by quantifying the amount of ATP remaining in solution after an in vitro Pim-1 kinase reaction. The Kinase-Glo Assay Kit (Promega, Inc., Madison, Wis.) allows this. The amount of ATP remaining in the solution after the kinase reaction serves as a substrate for the luciferase to catalyze luciferin to oxyluciferin plus one photon of light. Thus, the luminescent signal read by the Luminoskan Ascent Instrument (Thermo Electron Corp., Milford, Mass.) correlates with the amount of ATP present after the kinase reaction and inversely correlates with the amount of kinase activity. […] These assays are set up in duplicate 50 ul volumes in white, flat bottom 96 well plates. […] This solution is incubated at 30 degrees Celsius at 360 rpm for two hours. Following the incubation, 50 ul of Kinase-Glo reagent is added to each well, including all positive and negative control wells, and incubated at room temperature for 15 minutes. […] The IC50 values can then be calculated for each inhibitor tested.

hERG = hERG (Homo sapiens (Human), UniProt Q12809); experiment: hERG Fast Patch assay (WuXiApptec); format: cell-based
Chain of hERG (Q12809 whole entry): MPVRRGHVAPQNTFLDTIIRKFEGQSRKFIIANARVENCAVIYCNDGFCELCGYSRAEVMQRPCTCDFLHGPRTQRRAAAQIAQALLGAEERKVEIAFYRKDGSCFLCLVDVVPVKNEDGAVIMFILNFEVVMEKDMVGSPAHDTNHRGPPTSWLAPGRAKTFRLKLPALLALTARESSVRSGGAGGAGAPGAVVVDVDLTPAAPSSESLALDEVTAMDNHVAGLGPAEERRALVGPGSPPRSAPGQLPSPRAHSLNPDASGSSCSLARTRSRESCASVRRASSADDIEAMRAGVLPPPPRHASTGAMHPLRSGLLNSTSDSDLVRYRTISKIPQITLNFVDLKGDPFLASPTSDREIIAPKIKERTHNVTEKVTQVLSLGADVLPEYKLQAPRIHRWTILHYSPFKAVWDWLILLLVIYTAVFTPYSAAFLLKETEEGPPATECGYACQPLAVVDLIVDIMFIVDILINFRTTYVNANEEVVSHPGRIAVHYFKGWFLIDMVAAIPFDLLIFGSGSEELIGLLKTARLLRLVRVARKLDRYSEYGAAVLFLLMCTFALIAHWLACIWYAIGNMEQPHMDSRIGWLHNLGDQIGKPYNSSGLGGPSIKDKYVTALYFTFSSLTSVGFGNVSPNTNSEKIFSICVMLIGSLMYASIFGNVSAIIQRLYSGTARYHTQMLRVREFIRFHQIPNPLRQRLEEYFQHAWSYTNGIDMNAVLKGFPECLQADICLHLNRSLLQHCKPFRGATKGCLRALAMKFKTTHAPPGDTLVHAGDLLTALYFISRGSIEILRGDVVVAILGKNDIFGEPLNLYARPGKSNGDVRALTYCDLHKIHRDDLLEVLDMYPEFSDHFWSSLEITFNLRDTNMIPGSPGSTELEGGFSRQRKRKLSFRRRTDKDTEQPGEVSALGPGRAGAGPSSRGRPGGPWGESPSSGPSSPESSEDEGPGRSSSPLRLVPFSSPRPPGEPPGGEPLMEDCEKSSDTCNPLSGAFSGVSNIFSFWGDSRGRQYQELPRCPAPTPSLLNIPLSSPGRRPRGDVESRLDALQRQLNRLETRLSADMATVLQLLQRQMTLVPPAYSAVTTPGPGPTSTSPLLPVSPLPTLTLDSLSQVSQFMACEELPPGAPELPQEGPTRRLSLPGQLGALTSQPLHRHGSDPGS

[2] = Pharmacokinetic study in PC-3 tumor-burdened mice; format: in vivo, mouse; details: 200 mg/kg
PIM-1 [3] = molecular target: T1, PIM-1; experiment: PIM-1/BAD over-expression phospho-BAD (Ser112) AlphaScreen assay in HEK-293 cells; format: cell-based; details: PIM-1/BAD over-expression in HEK-293 cells; read-out: average EC50, PIM-1 specific cellular activity (BAD Ser112 phosphorylation)
Procedure: HEK-293 cells (1×10^4) were seeded in a 96-well plate using EMEM media with serum and incubated overnight at 37° C. in 5% CO2. […] Cells were serum starved for an additional 18 hours, then treated 2 hours with various concentrations of SGI-9481 or 0.5% carrier DMSO control. Media was removed and cells were lysed using 25 μl 1× lysis buffer from the AlphaScreen SureFire Phospho-BAD (Ser112) kit from Perkin Elmer. Lysates (4 μl) were transferred to a 384-well proxiplate, and 5 μl of acceptor mix was added to each well and incubated for 2 hours at room temperature. Donor mix (2 μl) was added to each well, and samples incubated for 2 hours at room temperature and reactions measured on an Envision plate reader (Perkin Elmer) with AlphaScreen capabilities. Non-specific phosphorylation of BAD was subtracted using values from PIM-1 KD transfected cells, and the remaining wells were normalized to the DMSO control wells. EC50 values were calculated using GraphPad Prism software (La Jolla, Calif.).

NIH-3T3/PIM-2 xenografts = experiment: NIH-3T3/PIM-2 over-expression mouse tumor xenograft; format: in vivo
Source text: (§1) Male and female Nu/Nu mice were purchased from Harlan Sprague Dawley (Indianapolis, Ind.). Female Nu/Nu mice were used for all xenograft evaluations with the exception of the PC-3 xenografts where male Nu/Nu mice were used. Cell lines were expanded in vitro in complete media, and if adherent were harvested by trypsin-EDTA, centrifuged and resuspended in PBS 1:1 with Matrigel (BD Bioscienes). Cells were inoculated subcutaneously in the right hind flank of mice. When tumors reached 100-200 mm^3 by caliper measurement, mice were randomized and dosing of SGI-9481 or vehicle control began and continued every day for 5 days (QD×5) with 2 days off for 18-21 days. Tumor volumes and body weights were determined twice a week, and tumor weights were measured at the completion of the translational xenograft studies.
(§2) The prostate cancer cell line 22RV1 engineered to over-express PIM-1 as previously described (Mumenthaler, et al, Mol. Cancer Ther., 2009, 8(10)2882-93) was evaluated in vivo. A second model engineered to over-express PIM-2 was established using the NIH-3T3 mouse fibroblast cell line.

PC-3 xenograft tumors = experiment: PC-3 established mouse xenograft tumors; format: in vivo
Source text: as §1, with “When tumors reached 100-200 mm^3 by caliper measurement, mice were randomized and dosing of SGI-9481 or vehicle control began and continued every day for 5 days (QD×5) with 2 days off for 18-21 days.” left out

[4] = test system: phosphatidyl inositol-3-kinase (PI3K) family; experiment: Selectivity study; format: biochemical
[5] = test system: ML-2 cells (wild-type FLT3) xenografts; experiment: ML-2 mouse xenograft study; format: in vivo; details: ML-2 (wild-type FLT3) xenografts
Source text: as §1

UM-UC-3 xenograft tumors = experiment: UM-UC-3 established mouse xenograft tumors; format: in vivo
Source text: as §1, with “When tumors reached 100-200 mm^3 by caliper measurement, mice were randomized and dosing of SGI-9481 or vehicle control began and continued every day for 5 days (QD×5) with 2 days off for 18-21 days.” left out

[6] = test system: MV-4-11 (FLT3-ITD) xenografts; experiment: MV-4-11 mouse xenograft study; format: in vivo
Source text: as §1

22RV1/PIM-1 xenografts = experiment: 22RV1/PIM-1 over-expression mouse tumor xenograft; format: in vivo
Source text: as §1, §2

[7] = 125 mg/kg, less than with 200 mg/kg

T1 sequence (P11309 whole entry): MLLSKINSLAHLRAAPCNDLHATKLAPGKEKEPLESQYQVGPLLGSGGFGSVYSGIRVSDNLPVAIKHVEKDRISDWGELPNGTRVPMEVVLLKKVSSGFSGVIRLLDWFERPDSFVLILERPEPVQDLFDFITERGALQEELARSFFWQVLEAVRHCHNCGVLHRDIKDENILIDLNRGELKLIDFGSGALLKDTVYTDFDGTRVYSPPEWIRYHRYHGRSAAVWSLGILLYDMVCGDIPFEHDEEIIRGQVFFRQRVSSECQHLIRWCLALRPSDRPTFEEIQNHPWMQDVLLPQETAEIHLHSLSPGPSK

SMILES: CO[C@H]1CC[C@H](Nc2ccc3nnc(-c4cccc(OC(F)(F)F)c4)n3c2)CC1 [Compound 8-99, 4-(trans-Methoxycyclohexyl)-3-(3-(trifluoromethoxy)phenyl)-[1,2,4]triazolo[4,3-a]pyridin-6-amine]
- IC50 (PIM-1 [1]; Table V): 0.083 µM

SMILES: CC(C)(O)[C@H]1CC[C@H](Nc2ccn3ncc(-c4cccc(C(F)(F)F)c4)c3n2)CC1 [Compound 8-56]
- IC50 (hERG): > 30 µM

SMILES: CC(C)(O)[C@H]1CC[C@H](Nc2ccn3ncc(-c4cccc(Cl)c4)c3n2)CC1 [Compound 8-63]
- IC50 (hERG): > 30 µM

SMILES: C[C@]1(O)CC[C@H](Nc2ccc3ncc(-c4cccc(C(F)(F)F)c4)n3n2)CC1 [Compound 8-30, 1-Methyl-4-((3-(3-(trifluoromethyl)phenyl)imidazo[1,2-b]pyridazin-6-yl)amino)-trans-cyclohexanol]
- IC50 (hERG): 12 µM
- IC50 (PIM-1 [1]; Table IV): 0.103 µM

SMILES: N[C@H]1CC[C@H](Nc2ccc3ncc(-c4cccc(OC(F)(F)F)c4)n3n2)CC1 [Compound 8-8, (3-(3-(Trifluoromethoxy)phenyl)imidazo[1,2-b]pyridazin-6-yl)cyclohexane-trans-1,4-diamine]
- IC50 (PIM-1 [1]; Table IV): 0.004 µM

SMILES: CC(C)(O)[C@H]1CC[C@H](Nc2ccc3ncc(-c4cccc(Cl)c4)n3n2)CC1 [Compound 8-37]
- IC50 (hERG): > 30 µM
- IC50 (PIM-1 [1]; Table IV): 0.004 µM

SMILES: CO[C@H]1CC[C@H](Nc2ccc3nnc(-c4cccc(Cl)c4)n3c2)CC1 [Compound 8-113, 4-(trans-Methoxycyclohexyl)-3-(3-chlorophenyl)-[1,2,4]triazolo[4,3-a]pyridin-6-amine]
- IC50 (PIM-1 [1]; Table V): 0.722 µM

SMILES: C[C@]1(O)CC[C@H](Nc2ccc3ncc(-c4cccc(Cl)c4)n3n2)CC1 [Compound 8-36, 4-((3-(3-Chlorophenyl)imidazo[1,2-b]pyridazin-6-yl)amino)-1-methyl-trans-cyclohexano]
- IC50 (PIM-1 [1]; Table IV): 0.145 µM

SMILES: C[C@]1(O)CC[C@H](Nc2ccc3nnc(-c4cccc(C(F)(F)F)c4)n3c2)CC1 [Compound 8-108, 1-Methyl-4-((3-(3-(trifluoromethyl)phenyl)-[1,2,4]triazolo[4,3-a]pyridin-6-yl)amino)-trans-cyclohexanol]
- IC50 (PIM-1 [1]; Table V): 0.07 µM

SMILES: CC(C)(O)[C@H]1CC[C@H](Nc2ccc3ncc(-c4cccc(C(F)(F)F)c4)n3n2)CC1 [Compound 8-31]
- plasma and tumor tissue levels [2]: above the in vitro proliferation EC50
- EC50 (PIM-1 [3]): 0.067 µM
- subcutaneous tumor growth (NIH-3T3/PIM-2 xenografts; NIH-3T3/PIM-2 + compound vs NIH-3T3/PIM-2 + vehicle): significantly inhibited
- body weight changes (NIH-3T3/PIM-2 xenografts; NIH-3T3/PIM-2 xenograft mice): No significant changes in body weight
- tumor growth inhibition (PC-3 xenograft tumors; [7]): significant tumor growth inhibition
- body weight or gross adverse toxicity (PC-3 xenograft tumors; oral dosing 200 mg/kg): no significant changes in body weight or gross adverse toxicity
- tumor growth by volume (caliper) and final tumor weight (PC-3 xenograft tumors; oral dosing 200 mg/kg): significantly reduced
- activity against multiple members of the PI3K family [4]: inhibitory activity
- tumor growth inhibition [5]: significant tumor growth inhibition
- tumor growth inhibition (UM-UC-3 xenograft tumors; [7]): significant tumor growth inhibition
- body weight or gross adverse toxicity (UM-UC-3 xenograft tumors; oral dosing 200 mg/kg): no significant changes in body weight or gross adverse toxicity
- tumor growth by volume (caliper) and final tumor weight (UM-UC-3 xenograft tumors; oral dosing 200 mg/kg): significantly reduced
- IC50 (PIM-1 [1]; Table IV): 0.001 µM
- effect on established xenografts [6]: induced regressions
- subcutaneous tumor growth (22RV1/PIM-1 xenografts; 22RV1/PIM-1 + compound vs 22RV1/PIM-1 + vehicle): significantly reduced
- body weight changes (22RV1/PIM-1 xenografts; 22RV1/PIM-1 xenograft mice): No significant changes in body weight

SMILES: CO[C@H]1CC[C@H](Nc2ccc3ncc(-c4cccc(C(F)(F)F)c4)n3n2)CC1 [Compound 8-32, 4-(trans-Methoxycyclohexyl)-3-(3-(trifluoromethyl)phenyl)imidazo[1,2-b]pyridazin-6-amine]
- IC50 (PIM-1 [1]; Table IV): 0.115 µM

SMILES: CC(C)(N)[C@H]1CC[C@H](Nc2ccc3ncc(-c4cccc(Cl)c4)n3n2)CC1 [Compound 8-79, N-(trans-4-(2-aminopropan-2-yl)cyclohexyl)-3-(3-chlorophenyl)imidazo[1,2-b]pyridazin-6-amine]
- IC50 (PIM-1 [1]; Table IV): 0.002 µM
